Results published in the NIST ThermoML archive (doi:10.1021/je049908l).
Numbers after ± are expanded uncertainties.

How the values were obtained:
[1] = Crystal; DTA
[2] = Molar enthalpy of transition or fusion; settings: Crystal; DSC

Normal melting temperature [1]: 71.80 ± 2.1 °C | Molar enthalpy of transition or fusion [2]: 10.7 ± 0.693 kcal/mol
SMILES: NC(C(=O)O)c1ccc(O)cc1.O=S(=O)(O)O (racemic) [DL-p-hydroxyphenylglycine sulfate]
